Experimental data as given in ChEMBL document CHEMBL1201862, “PubChem BioAssay data set” (2004).
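Step 1: Grow cells in 96-well plates. Step 2: Expose to compound for 48 hours at 5 concentrations. Step 3: Interpolate endpoints linearly; if unreached, use highest concentration. GI50 = concentration required for 50% inhibition of growth.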 Calls of active or inactive are those of the source. Rule as the data show it: active = GI50 up to about 1.1 µM and inactive = higher.

Key:
Experiment in all cases: DTP human tumour cell line panel, 48 h
786-0 = system: 786-0
A498 = system: A498
A549 = system: A549
ACHN = system: ACHN
BT-549 = system: BT-549
CAKI-1 = system: CAKI-1
CCRF-CEM = system: CCRF-CEM
COLO 205 = system: COLO 205
DU-145 = system: DU-145
EKVX = system: EKVX
HCC 2998 = system: HCC 2998
HCT-116 = system: HCT-116
HCT-15 = system: HCT-15
HL-60 = system: HL-60
HOP-62 = system: HOP-62
HOP-92 = system: HOP-92
HT-29 = system: HT-29
Hs-578T = system: Hs-578T
IGROV-1 = system: IGROV-1
KM12 = system: KM12
LOX IMVI = system: LOX IMVI
M14 = system: M14
MCF7 = system: MCF7
MDA-MB-231 = system: MDA-MB-231
MDA-MB-435 = system: MDA-MB-435
MDA-N = system: MDA-N
MOLT-4 = system: MOLT-4
Malme-3M = system: Malme-3M
NCI-H226 = system: NCI-H226
NCI-H23 = system: NCI-H23
NCI-H460 = system: NCI-H460
NCI-H522 = system: NCI-H522
NCI/ADR-RES = system: NCI/ADR-RES
OVCAR-3 = system: OVCAR-3
OVCAR-4 = system: OVCAR-4
OVCAR-5 = system: OVCAR-5
OVCAR-8 = system: OVCAR-8
PC-3 = system: PC-3
RPMI-8226 = system: RPMI-8226
RXF 393 = system: RXF 393
SF-268 = system: SF-268
SF-295 = system: SF-295
SF-539 = system: SF-539
SK-MEL-28 = system: SK-MEL-28
SK-MEL-2 = system: SK-MEL-2
SK-MEL-5 = system: SK-MEL-5
SK-OV-3 = system: SK-OV-3
SN12C = system: SN12C
SNB-19 = system: SNB-19
SNB-75 = system: SNB-75
SR = system: SR
SW-620 = system: SW-620
T47D = system: T47D
TK-10 = system: TK-10
U-251 = system: U-251
UACC-62 = system: UACC-62
UO-31 = system: UO-31
K562 = system: K562
UACC-257 = system: UACC-257

**Q.** How did the GI50 (786-0) turn out when `CSc1nc(SC)c2c(CO)c(Br)n(Cc3ccccc3)c2n1` was run?
**A.** 18.7 µM (inactive)

**Q.** And the GI50 (A498)?
**A.** 4.32 µM (inactive)

**Q.** And the GI50 (A549)?
**A.** 29.8 µM (inactive)

**Q.** What about the GI50 (ACHN) of the same compound?
**A.** 15.3 µM (inactive)

**Q.** And the GI50 (BT-549)?
**A.** 21.6 µM (inactive)

**Q.** And the GI50 (CAKI-1)?
**A.** 10 µM (inactive)

**Q.** What about the GI50 (CCRF-CEM) of the same compound?
**A.** > 100 µM (inactive)

**Q.** What about the GI50 (COLO 205) of the same compound?
**A.** > 100 µM (inactive)

**Q.** And the GI50 (DU-145)?
**A.** 25.9 µM (inactive)

**Q.** What about the GI50 (EKVX) of the same compound?
**A.** 29.2 µM (inactive)

**Q.** And the GI50 (HCC 2998)?
**A.** 43.3 µM (inactive)

**Q.** What about the GI50 (HCT-116) of the same compound?
**A.** 26.4 µM (inactive)

**Q.** What about the GI50 (HCT-15) of the same compound?
**A.** 70 µM

**Q.** And the GI50 (HL-60)?
**A.** > 100 µM (inactive)

**Q.** And the GI50 (HOP-62)?
**A.** 27 µM (inactive)

**Q.** And the GI50 (HOP-92)?
**A.** 17.2 µM (inactive)

**Q.** What about the GI50 (HT-29) of the same compound?
**A.** 33.8 µM (inactive)

**Q.** And the GI50 (Hs-578T)?
**A.** 19.1 µM (inactive)

**Q.** And the GI50 (IGROV-1)?
**A.** 16 µM (inactive)

**Q.** And the GI50 (KM12)?
**A.** 70 µM (inactive)

**Q.** And the GI50 (LOX IMVI)?
**A.** 25.3 µM (inactive)

**Q.** And the GI50 (M14)?
**A.** 83.2 µM (inactive)

**Q.** What about the GI50 (MCF7) of the same compound?
**A.** 24.6 µM (inactive)

**Q.** And the GI50 (MDA-MB-231)?
**A.** 17.7 µM (inactive)

**Q.** What about the GI50 (MDA-MB-435) of the same compound?
**A.** > 100 µM (inactive)

**Q.** And the GI50 (MDA-N)?
**A.** > 100 µM (inactive)

**Q.** What about the GI50 (MOLT-4) of the same compound?
**A.** > 100 µM (inactive)

**Q.** And the GI50 (Malme-3M)?
**A.** 52.4 µM (inactive)

**Q.** What about the GI50 (NCI-H226) of the same compound?
**A.** 11.3 µM (inactive)

**Q.** What about the GI50 (NCI-H23) of the same compound?
**A.** 30.7 µM (inactive)

**Q.** And the GI50 (NCI-H460)?
**A.** 15.7 µM (inactive)

**Q.** And the GI50 (NCI-H522)?
**A.** 14.2 µM (inactive)

**Q.** And the GI50 (NCI/ADR-RES)?
**A.** 24.7 µM (inactive)

**Q.** What about the GI50 (OVCAR-3) of the same compound?
**A.** 29.5 µM (inactive)

**Q.** What about the GI50 (OVCAR-4) of the same compound?
**A.** 16.1 µM (inactive)

**Q.** What about the GI50 (OVCAR-5) of the same compound?
**A.** 56.9 µM (inactive)

**Q.** What about the GI50 (OVCAR-8) of the same compound?
**A.** 18 µM (inactive)

**Q.** What about the GI50 (PC-3) of the same compound?
**A.** 43.1 µM (inactive)

**Q.** What about the GI50 (RPMI-8226) of the same compound?
**A.** 92.9 µM (inactive)

**Q.** What about the GI50 (RXF 393) of the same compound?
**A.** 28 µM (inactive)

**Q.** And the GI50 (SF-268)?
**A.** 16.3 µM (inactive)

**Q.** What about the GI50 (SF-295) of the same compound?
**A.** 20.7 µM (inactive)

**Q.** What about the GI50 (SF-539) of the same compound?
**A.** 12.2 µM (inactive)

**Q.** And the GI50 (SK-MEL-28)?
**A.** 47.9 µM (inactive)

**Q.** What about the GI50 (SK-MEL-2) of the same compound?
**A.** 25.7 µM (inactive)

**Q.** And the GI50 (SK-MEL-5)?
**A.** 48.9 µM (inactive)

**Q.** And the GI50 (SK-OV-3)?
**A.** 20.2 µM (inactive)

**Q.** What about the GI50 (SN12C) of the same compound?
**A.** 35.4 µM (inactive)

**Q.** And the GI50 (SNB-19)?
**A.** 29 µM (inactive)

**Q.** What about the GI50 (SNB-75) of the same compound?
**A.** 13.6 µM (inactive)

**Q.** And the GI50 (SR)?
**A.** > 100 µM (inactive)

**Q.** What about the GI50 (SW-620) of the same compound?
**A.** > 100 µM (inactive)

**Q.** What about the GI50 (T47D) of the same compound?
**A.** 14.9 µM (inactive)

**Q.** What about the GI50 (TK-10) of the same compound?
**A.** 21.8 µM (inactive)

**Q.** What about the GI50 (U-251) of the same compound?
**A.** 12.6 µM (inactive)

**Q.** And the GI50 (UACC-62)?
**A.** 17.5 µM (inactive)

**Q.** What about the GI50 (UO-31) of the same compound?
**A.** 12.7 µM (inactive)

**Q.** For `Nc1ccccc1.O=P(O)(OP(=O)(O)c1ccccc1)c1ccccc1`, which GI50 (786-0) is on record?
**A.** > 100 µM (inactive)

**Q.** What about the GI50 (A498) of the same compound?
**A.** > 100 µM (inactive)

**Q.** And the GI50 (A549)?
**A.** > 100 µM (inactive)

**Q.** And the GI50 (ACHN)?
**A.** > 100 µM (inactive)

**Q.** What about the GI50 (BT-549) of the same compound?
**A.** > 100 µM (inactive)

**Q.** What about the GI50 (CAKI-1) of the same compound?
**A.** > 100 µM (inactive)

**Q.** What about the GI50 (CCRF-CEM) of the same compound?
**A.** > 100 µM (inactive)

**Q.** And the GI50 (COLO 205)?
**A.** > 100 µM (inactive)

**Q.** And the GI50 (DU-145)?
**A.** > 100 µM (inactive)

**Q.** What about the GI50 (EKVX) of the same compound?
**A.** > 100 µM (inactive)

**Q.** And the GI50 (HCC 2998)?
**A.** > 100 µM (inactive)

**Q.** And the GI50 (HCT-116)?
**A.** > 100 µM (inactive)

**Q.** What about the GI50 (HCT-15) of the same compound?
**A.** 89.3 µM

**Q.** What about the GI50 (HL-60) of the same compound?
**A.** 65.3 µM (inactive)

**Q.** And the GI50 (HOP-62)?
**A.** > 100 µM (inactive)

**Q.** What about the GI50 (HOP-92) of the same compound?
**A.** > 100 µM (inactive)

**Q.** What about the GI50 (HT-29) of the same compound?
**A.** > 100 µM (inactive)

**Q.** And the GI50 (Hs-578T)?
**A.** > 100 µM (inactive)

**Q.** What about the GI50 (IGROV-1) of the same compound?
**A.** > 100 µM (inactive)

**Q.** And the GI50 (K562)?
**A.** > 100 µM (inactive)

**Q.** And the GI50 (KM12)?
**A.** > 100 µM (inactive)

**Q.** And the GI50 (LOX IMVI)?
**A.** > 100 µM (inactive)

**Q.** What about the GI50 (M14) of the same compound?
**A.** > 100 µM (inactive)

**Q.** What about the GI50 (MCF7) of the same compound?
**A.** > 100 µM (inactive)

**Q.** And the GI50 (MDA-MB-231)?
**A.** > 100 µM (inactive)

**Q.** What about the GI50 (MDA-MB-435) of the same compound?
**A.** > 100 µM (inactive)

**Q.** And the GI50 (MDA-N)?
**A.** > 100 µM (inactive)

**Q.** What about the GI50 (Malme-3M) of the same compound?
**A.** > 100 µM (inactive)

**Q.** And the GI50 (NCI-H226)?
**A.** > 100 µM (inactive)

**Q.** What about the GI50 (NCI-H23) of the same compound?
**A.** > 100 µM (inactive)

**Q.** What about the GI50 (NCI-H460) of the same compound?
**A.** > 100 µM (inactive)

**Q.** And the GI50 (NCI-H522)?
**A.** > 100 µM (inactive)

**Q.** What about the GI50 (NCI/ADR-RES) of the same compound?
**A.** > 100 µM (inactive)

**Q.** And the GI50 (OVCAR-3)?
**A.** > 100 µM (inactive)

**Q.** What about the GI50 (OVCAR-4) of the same compound?
**A.** > 100 µM (inactive)

**Q.** What about the GI50 (OVCAR-5) of the same compound?
**A.** > 100 µM (inactive)

**Q.** And the GI50 (OVCAR-8)?
**A.** > 100 µM (inactive)

**Q.** And the GI50 (PC-3)?
**A.** > 100 µM (inactive)

**Q.** And the GI50 (RPMI-8226)?
**A.** > 100 µM (inactive)

**Q.** What about the GI50 (RXF 393) of the same compound?
**A.** > 100 µM (inactive)

**Q.** And the GI50 (SF-268)?
**A.** > 100 µM (inactive)

**Q.** What about the GI50 (SF-295) of the same compound?
**A.** 96.4 µM (inactive)

**Q.** And the GI50 (SK-MEL-28)?
**A.** > 100 µM (inactive)

**Q.** What about the GI50 (SK-MEL-2) of the same compound?
**A.** > 100 µM (inactive)

**Q.** What about the GI50 (SK-MEL-5) of the same compound?
**A.** > 100 µM (inactive)

**Q.** What about the GI50 (SK-OV-3) of the same compound?
**A.** > 100 µM (inactive)

**Q.** What about the GI50 (SN12C) of the same compound?
**A.** > 100 µM (inactive)

**Q.** And the GI50 (SNB-19)?
**A.** > 100 µM (inactive)

**Q.** And the GI50 (SNB-75)?
**A.** > 100 µM (inactive)

**Q.** What about the GI50 (SR) of the same compound?
**A.** > 100 µM (inactive)

**Q.** And the GI50 (SW-620)?
**A.** > 100 µM (inactive)

**Q.** What about the GI50 (T47D) of the same compound?
**A.** > 100 µM (inactive)

**Q.** And the GI50 (TK-10)?
**A.** > 100 µM (inactive)

**Q.** And the GI50 (U-251)?
**A.** > 100 µM (inactive)

**Q.** What about the GI50 (UACC-257) of the same compound?
**A.** > 100 µM (inactive)

**Q.** What about the GI50 (UACC-62) of the same compound?
**A.** > 100 µM (inactive)

**Q.** And the GI50 (UO-31)?
**A.** > 100 µM (inactive)
